Source: patent US10695296B2, “Formulations, methods, kit, and dosage forms for improved stability of an active pharmaceutical ingredient” (Asana BioSciences, LLC, priority 2017, dated 2020)

Experiment: Dissolution, USP <711> Apparatus 2 paddle method at 50 rpm
Format: physicochemical
Settings: 500 ml 0.01 N HCl or 50 mM phosphate buffer (pH 6.8), 0.5% sodium lauryl sulfate, paddle 50 rpm
Protocol: The dissolution characteristics of the spray-dried formulation prepared in Example 2 above were measured by suspending the formulation in 500 ml 0.01 N HCl or 50 mM phosphate buffer (pH 6.8), 0.5% sodium lauryl sulfate, and measuring dissolution by the USP <711> Apparatus 2 (paddle method) at 50 rpm. As a control, particles of crystalline active ingredient N-(3-(2-(6-amino-4-(trifluoromethyl)pyridin-3-yl)-4-morpholinopyrido[3,2-d]pyrimidin-6-yl)-2-fluorophenyl)-3-fluoropropane-1-sulfonamide (as prepared in Example 7 below) was suspended in either 500 ml 0.01 N HCl or 50 mM phosphate buffer (pH 6.8), 0.5% sodium lauryl sulfate and dissolution measured by the same method.

SMILES: Nc1cc(C(F)(F)F)c(-c2nc(N3CCOCC3)c3nc(-c4cccc(NS(=O)(=O)CCCF)c4F)ccc3n2)cn1 [crystalline active ingredient, N-(3-(2-(6-amino-4-(trifluoromethyl)pyridin-3-yl)-4-morpholinopyrido[3,2-d]pyrimidin-6-yl)-2-fluorophenyl)-3-fluoropropane-1-sulfonamide]
- dissolution state after 60 minutes: still not fully dissolved
